Measurements from patent US8445492B2, “Method for inhibiting growth of cancer cells and cell telomere and diseases of cell proliferation by using heteroannelated anthraquinone derivative compounds” (National Defense Medical Center, priority 2008, dated 2013).
Like-named read-outs stand apart in the source and are kept apart here.

How the values were obtained:
[1] = system: K-562
[2] = system: CCRF-CEM; test: NCI DTP in-vitro dose response, Leukemia
[3] = system: HL-60(TB); test: NCI DTP in-vitro dose response, Leukemia
[4] = system: RPMI-8226; test: NCI DTP in-vitro dose response, Leukemia
[5] = system: MOLT-4
[6] = system: RPMI-8226
[7] = system: K-562; test: NCI DTP in-vitro dose response, Leukemia
[8] = system: HL-60(TB)
[9] = system: MOLT-4; test: NCI DTP in-vitro dose response, Leukemia
[10] = system: CCRF-CEM

## O=C1c2ccccc2C(=O)c2c1ccc1nccnc21 [TABLE 5-1]
[1]
  GI50: 0.0683 µM
  TGI: >1.00E−4
[1]; Log10 Concentration −4.0
  Percent Growth: 10%
[1]; Log10 Concentration −5.0
  Percent Growth: 17%
[1]; Log10 Concentration −6.0
  Percent Growth: 30%
[1]; Log10 Concentration −7.0
  Percent Growth: 41%
[1]; Log10 Concentration −8.0
  Percent Growth: 94%
[2]
  CC50: > 100 µM
[3]
  CC50: 83.7 µM
[4]
  CC50: > 100 µM
[5]
  GI50: 3.65 µM
  TGI: >1.00E−4
[5]; Log10 Concentration −4.0
  Percent Growth: 4%
[5]; Log10 Concentration −5.0
  Percent Growth: 33%
[5]; Log10 Concentration −6.0
  Percent Growth: 72%
[5]; Log10 Concentration −7.0
  Percent Growth: 81%
[5]; Log10 Concentration −8.0
  Percent Growth: 89%
[6]
  GI50: 1.61 µM
  TGI: >1.00E−4
[6]; Log10 Concentration −4.0
  Percent Growth: 12%
[6]; Log10 Concentration −5.0
  Percent Growth: 30%
[6]; Log10 Concentration −6.0
  Percent Growth: 55%
[6]; Log10 Concentration −7.0
  Percent Growth: 81%
[6]; Log10 Concentration −8.0
  Percent Growth: 90%
[7]
  CC50: > 100 µM
[8]
  GI50: 0.677 µM
  TGI: 1.15E−5
[8]; Log10 Concentration −4.0
  Percent Growth: −54%
[8]; Log10 Concentration −5.0
  Percent Growth: 3%
[8]; Log10 Concentration −6.0
  Percent Growth: 47%
[8]; Log10 Concentration −7.0
  Percent Growth: 67%
[8]; Log10 Concentration −8.0
  Percent Growth: 83%
[9]
  CC50: > 100 µM
[10]
  GI50: 2.46 µM
  TGI: >1.00E−4
[10]; Log10 Concentration −4.0
  Percent Growth: 20%
[10]; Log10 Concentration −5.0
  Percent Growth: 22%
[10]; Log10 Concentration −6.0
  Percent Growth: 68%
[10]; Log10 Concentration −7.0
  Percent Growth: 91%
[10]; Log10 Concentration −8.0
  Percent Growth: 90%
